In ChEMBL document CHEMBL5380806, “Cyclopropenone, Cyclopropeniminium Ion, and Cyclopropenethione as Novel Electrophilic Warheads for Potential Target Discovery of Triple-Negative Breast Cancer” (J Med Chem, 2023):
The source made the active and inactive calls. No cut-off for these calls is given here.

Experiments:
[1] = tested on: MDA-MB-231; test: Induction of apoptosis in human MDA-MB-231 cells assessed as viable cells at 5 uM incubated for 48 hrs by Annexin V-FITC/PI staining based analysis (reference value: 95.14%); assay type: functional; conditions: read-out: Activity
[2] = tested on: MDA-MB-231; test: Induction of cell cycle arrest in human MDA-MB-231 cells assessed as accumulation of cells at G0/G1 phase at 0.156 uM incubated for 24 hrs by PI/RNase staining based flow cytometric analysis relative to control; assay type: functional
[3] = tested on: MDA-MB-231; test: Induction of cell cycle arrest in human MDA-MB-231 cells assessed as accumulation of cells at S phase at 0.156 uM incubated for 24 hrs by PI/RNase staining based flow cytometric analysis relative to control; assay type: functional
[4] = tested on: MDA-MB-231; test: Induction of cell cycle arrest in human MDA-MB-231 cells assessed as G2/M phase cells at 0.156 uM incubated for 24 hrs by PI/RNase staining based flow cytometric analysis relative to control; assay type: functional
[5] = Drug uptake in human MDA-MB-231 cells at 10 uM incubated for 5 hrs by imaging based microscopic analysis; assay type: ADME, cell-based; conditions: mda-mb-231, 5 h
[6] = target: T1, Aldehyde dehydrogenase, mitochondrial (Homo sapiens) (UniProt P05091); test: Binding affinity to ALDH2 in human MDA-MB-231 cells at 20 uM incubated for 2 to 5 hrs by pull down based LC-MS analysis; assay type: cell-based; conditions: time 2-5 hrs
T1 sequence (whole entry): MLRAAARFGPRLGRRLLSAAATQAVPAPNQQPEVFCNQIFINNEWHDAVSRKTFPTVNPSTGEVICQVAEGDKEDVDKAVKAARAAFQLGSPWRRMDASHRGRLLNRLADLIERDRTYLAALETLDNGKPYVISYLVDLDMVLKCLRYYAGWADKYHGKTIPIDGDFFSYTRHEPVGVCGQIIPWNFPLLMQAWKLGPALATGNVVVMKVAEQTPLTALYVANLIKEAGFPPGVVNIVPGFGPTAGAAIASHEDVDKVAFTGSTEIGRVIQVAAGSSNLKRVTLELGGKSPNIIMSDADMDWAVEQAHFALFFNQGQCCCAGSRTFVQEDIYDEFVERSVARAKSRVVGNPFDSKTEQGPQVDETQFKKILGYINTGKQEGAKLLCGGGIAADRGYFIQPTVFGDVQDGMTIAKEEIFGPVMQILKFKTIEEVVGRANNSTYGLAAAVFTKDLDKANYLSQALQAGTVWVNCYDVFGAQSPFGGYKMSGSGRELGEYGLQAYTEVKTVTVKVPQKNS

[7] = target: Leucine-rich PPR motif-containing protein, mitochondrial (Homo sapiens) (UniProt P42704); test: Binding affinity to LRPPRC in human MDA-MB-231 cells at 20 uM incubated for 2 to 5 hrs by pull down based LC-MS analysis; assay type: cell-based; conditions: time 2-5 hrs
[8] = target: Fatty acid-binding protein 5 (Homo sapiens) (UniProt Q01469); test: Binding affinity to FABP5 in human MDA-MB-231 cells at 20 uM incubated for 2 to 5 hrs by pull down based LC-MS analysis; assay type: cell-based; conditions: time 2-5 hrs
Fatty acid-binding protein 5 (Homo sapiens), sequence (Q01469 whole entry): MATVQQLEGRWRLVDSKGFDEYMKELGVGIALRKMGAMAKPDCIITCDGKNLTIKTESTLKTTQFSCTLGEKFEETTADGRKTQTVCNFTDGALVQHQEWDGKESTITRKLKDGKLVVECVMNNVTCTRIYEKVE

[9] = target: Alpha-enolase (Homo sapiens) (UniProt P06733); test: Binding affinity to recombinant ENO1 (unknown origin) at 10 uM by Western blot analysis
Alpha-enolase (Homo sapiens), sequence (P06733 whole entry): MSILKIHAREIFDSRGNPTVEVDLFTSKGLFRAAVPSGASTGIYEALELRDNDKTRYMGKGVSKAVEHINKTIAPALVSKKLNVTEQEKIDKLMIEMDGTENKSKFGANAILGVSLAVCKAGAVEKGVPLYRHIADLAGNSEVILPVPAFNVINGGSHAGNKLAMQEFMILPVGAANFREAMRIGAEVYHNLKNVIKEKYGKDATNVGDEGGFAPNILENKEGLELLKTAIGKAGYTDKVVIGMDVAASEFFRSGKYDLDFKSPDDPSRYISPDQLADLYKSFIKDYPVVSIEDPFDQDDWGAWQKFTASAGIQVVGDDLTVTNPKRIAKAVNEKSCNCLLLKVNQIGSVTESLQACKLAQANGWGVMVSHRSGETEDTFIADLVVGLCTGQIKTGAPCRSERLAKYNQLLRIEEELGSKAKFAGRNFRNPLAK

[10] = target: T2, Peptidyl-prolyl cis-trans isomerase FKBP4 (Homo sapiens) (UniProt Q02790); test: Binding affinity to recombinant FKBP4 (unknown origin) at 10 uM by Western blot analysis
T2 sequence (whole entry): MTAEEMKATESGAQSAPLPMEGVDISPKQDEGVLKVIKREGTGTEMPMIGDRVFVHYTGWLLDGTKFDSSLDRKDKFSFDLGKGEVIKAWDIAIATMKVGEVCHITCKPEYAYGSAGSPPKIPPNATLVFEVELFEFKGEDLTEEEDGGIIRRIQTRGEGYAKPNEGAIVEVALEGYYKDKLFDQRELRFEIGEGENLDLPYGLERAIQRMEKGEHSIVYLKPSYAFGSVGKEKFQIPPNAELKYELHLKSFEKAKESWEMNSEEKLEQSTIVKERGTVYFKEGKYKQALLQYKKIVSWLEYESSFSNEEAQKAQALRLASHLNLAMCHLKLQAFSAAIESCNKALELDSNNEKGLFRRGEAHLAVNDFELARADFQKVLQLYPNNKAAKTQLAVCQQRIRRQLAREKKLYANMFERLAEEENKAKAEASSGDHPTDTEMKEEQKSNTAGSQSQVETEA

[11] = tested on: MDA-MB-231; test: Induction of apoptosis in human MDA-MB-231 cells assessed as early apoptotic cells at 5 uM incubated for 48 hrs by Annexin V-FITC/PI staining based analysis (reference value: 1.98%); assay type: functional
[12] = tested on: MDA-MB-231; test: Induction of apoptosis in human MDA-MB-231 cells assessed as late apoptotic cells at 5 uM incubated for 48 hrs by Annexin V-FITC/PI staining based analysis (reference value: 1.82%); assay type: functional
[13] = tested on: MDA-MB-231; test: Induction of apoptosis in human MDA-MB-231 cells transfected with FABP5 siRNA assessed as early apoptotic cells at 5 uM incubated for 48 hrs by Annexin V-FITC/PI staining based analysis (reference value: 3.25%); assay type: functional
[14] = tested on: MDA-MB-231; test: Induction of apoptosis in human MDA-MB-231 cells transfected with FABP5 siRNA assessed as late apoptotic cells at 5 uM incubated for 48 hrs by Annexin V-FITC/PI staining based analysis (reference value: 8.47%); assay type: functional
[15] = tested on: L02; test: Cytotoxicity against human HL7702 cells assessed as inhibition of cell growth incubated for 72 hrs by CCK8 assay; assay type: toxicity, cell-based; conditions: l02, 72 h
[16] = tested on: GTPase KRas (Homo sapiens), P01116 [G12C]; test: Binding affinity to N-terminal 6his/SUMO-tagged KRAS G12C mutant (unknown origin) expressed in Escherichia coli BL21 (DE3) cells at 10 uM incubated for 2 to 7 hrs by fluorescence based SDS-PAGE analysis; conditions: time 2-7 hrs
GTPase KRas (Homo sapiens), P01116 [G12C], sequence (P01116 whole entry G12C): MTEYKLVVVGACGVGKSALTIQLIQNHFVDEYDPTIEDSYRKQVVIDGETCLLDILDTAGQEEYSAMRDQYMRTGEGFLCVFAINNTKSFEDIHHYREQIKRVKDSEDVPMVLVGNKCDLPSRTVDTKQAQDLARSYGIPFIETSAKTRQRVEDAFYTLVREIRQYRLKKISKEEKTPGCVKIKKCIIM

[17] = target: Lactotransferrin (Homo sapiens) (UniProt P02788); test: Binding affinity to N-terminal 6his/SUMO-tagged lactoferrin (unknown origin) expressed in Escherichia coli BL21 (DE3) cells incubated for 2 to 7 hrs by fluorescence based SDS-PAGE analysis; conditions: time 2-7 hrs
Lactotransferrin (Homo sapiens), sequence (P02788 whole entry): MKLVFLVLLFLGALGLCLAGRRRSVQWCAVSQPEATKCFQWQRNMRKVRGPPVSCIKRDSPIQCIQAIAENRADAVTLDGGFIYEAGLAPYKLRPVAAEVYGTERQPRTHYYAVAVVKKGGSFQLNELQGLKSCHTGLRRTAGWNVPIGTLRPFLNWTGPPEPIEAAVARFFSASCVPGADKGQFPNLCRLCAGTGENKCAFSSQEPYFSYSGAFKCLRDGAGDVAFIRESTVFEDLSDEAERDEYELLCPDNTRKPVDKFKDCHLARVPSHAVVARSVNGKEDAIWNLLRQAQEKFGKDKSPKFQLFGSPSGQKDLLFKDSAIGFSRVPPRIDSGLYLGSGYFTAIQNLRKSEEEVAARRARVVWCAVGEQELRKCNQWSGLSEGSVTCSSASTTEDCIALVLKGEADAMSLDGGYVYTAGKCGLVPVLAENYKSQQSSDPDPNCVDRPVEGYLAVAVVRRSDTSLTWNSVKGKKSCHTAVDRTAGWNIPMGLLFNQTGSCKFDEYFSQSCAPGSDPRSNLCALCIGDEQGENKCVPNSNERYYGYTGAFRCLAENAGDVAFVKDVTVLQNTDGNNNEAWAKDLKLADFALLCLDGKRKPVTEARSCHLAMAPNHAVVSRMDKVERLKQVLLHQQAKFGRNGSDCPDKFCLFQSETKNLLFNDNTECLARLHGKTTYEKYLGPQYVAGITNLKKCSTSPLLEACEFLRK

[18] = target: Glutathione S-transferase P (Homo sapiens, UniProt P09211); test: Binding affinity to N-terminal 6his/SUMO-tagged GSTP1 (unknown origin) expressed in Escherichia coli BL21 (DE3) cells incubated for 2 to 7 hrs by fluorescence based SDS-PAGE analysis; conditions: time 2-7 hrs
Glutathione S-transferase P, sequence (P09211 2-210 limits assumed): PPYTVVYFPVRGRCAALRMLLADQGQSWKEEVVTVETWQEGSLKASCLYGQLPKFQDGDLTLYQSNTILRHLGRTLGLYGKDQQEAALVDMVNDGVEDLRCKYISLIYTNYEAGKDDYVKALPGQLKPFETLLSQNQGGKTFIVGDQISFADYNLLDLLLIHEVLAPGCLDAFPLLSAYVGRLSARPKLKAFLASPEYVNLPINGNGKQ

Drug uptake [5]: Active | Activity [6]: Active | Activity [7]: Active | Activity [8]: Active | Activity [9]: Active | Activity [10]: Active | Activity [16]: Active | Activity [17]: Active | Activity [18]: Active
SMILES: C#CCOc1ccc(-c2cc2=O)cc1
viability at 5 µM [1]: 67.3% | Activity [2]: 57.98% | Activity [3]: 13.79% | Activity [4]: 26.86% | Activity [11]: 16.23% | Activity [12]: 14.03% | Activity [13]: 30.82% | Activity [14]: 32.83% | Activity [15]: Non-Toxic
